One test deals with TCR3. Briefly: Single SABR-II co-incubation, NFAT-GFP Jurkat. Format: cell-based, mouse. As to conditions: TCR 3, Fig 5C. An excerpt: Given the predominance of HIP-reactive TCRs, we hypothesized that there may be other TCRs that respond to HIPs that were not encoded in our initial library configuration. While the initial I-Ag7 SABR-II library consisted of a number of HIPs, HIP formation is thought to be more widespread in pancreatic β-cells[52],[70]. Therefore, we sought to construct a defined, HIP-focused library to probe whether there were any undiscovered HIP-reactive TCRs that could be recognized by the clonally expanded TCR in our dataset. To test this, we utilized a published proteomic dataset, which predicted that several proteins that were highly expressed in secretory granules of β-cells may contribute to HIP formation. Using their predictions, we built a theoretical HIP library, in which all possible ‘left’ halves of the insulin C chain derived from natural cleavage products were fused to ‘right’ halves derived from secretory granule proteins (Fig. 5a). This 2,561-epitope library (12–25 amino acids per epitope) consisted of only HIPs and a small number of positive control epitopes (Supplementary Table 5). We screened the top three clonally expanded TCRs (TCR1, TCR2 and TCR3) against this library, as these TCRs had not been de-convoluted using the original library. […] To confirm that the HIP itself was important for the cognate interaction, we cloned single 14-mer epitopes into SABR-IIs consisting of seven amino acids of the left portion of the HIP and seven amino acids of the right portion of the HIP. In this way, no nine amino acids from either peptide sequence alone could occupy the binding pocket of I-Ag7, ensuring that TCR reactivity spanned the HIP junction. […] Of note, in all the epitopes that were tested, the ‘left’ half derived from insulin C was conserved, whereas the ‘right’ halves were derived from several other proteins (Fig. 5d). […] Moreover, the promiscuous binding of TCR3 to HIPs corroborates evidence from other NOD mouse-derived TCRs reacting to multiple HIPs[72].
(§1) For SABR library screens, 3 × 10^6 NFAT–GFP Jurkat cells expressing the SABR library were labeled with CellTrace Violet (BioLegend) according to the manufacturer’s protocol before incubation with 3 × 10^6 Jurkat cells expressing the TCR of interest. These mixtures were incubated in a six-well plate for 16–20 h. Cells were stained with anti-CD69-APC-Cy7 where indicated (BioLegend) and the top 1–2% of GFP^+CD69^+ cells were sorted for genomic DNA extraction, indexing and sequencing (see below). Multiplexed assays were scaled on a per-TCR basis (for example 3 × 10^6 for each of three TCRs against 9 × 10^6 library cells). For single SABR assays, unless otherwise defined, 5 × 10^5 SABR expressing NFAT–GFP Jurkat cells (or 5KC cells) were labeled with CellTrace Violet (BioLegend) according to the manufacturer’s protocol before incubation with 5 × 10^5 TCR-expressing Jurkat cells (or 5KC cells) in a round-bottom 96-well plate for 16–20 h. Cells were stained with anti-CD69-APC-Cy7 when indicated and acquired on the Attune NxT flow cytometer (Thermo Fisher Scientific). All flow analysis was performed using FlowJo (BD). For Daudi cell co-culture, 1 × 10^6 Jurkat cells expressing the TCR of interest were incubated with 1 × 10^6 Daudi cells expressing a SABR of interest for 3 days. On day 3, cells were labeled with anti-RT1B-PE and anti-Fas-APC-Cy7 before being acquired on the Attune NxT flow cytometer.

The next test relates to GSE.20D11 TCR. In words: Single SABR-II co-incubation, NFAT-GFP Jurkat (HLA-DQ8). The settings on record: HLA-DQ8 SABR-II. The test is classed as cell-based, human.
Text: (§2) We have previously described SABRs, which are chimeric receptors containing an extracellular pMHC complex attached to an intracellular CD28-CD3ζ signaling domain. […] We sought to expand this platform to allow antigen discovery for MHC/HLA-II with seamless integration with class I alleles. Here, we created SABRs to present epitopes in MHC-II alleles, by covalently linking the epitope to the β-chain of MHC-II that is attached to the CD28-CD3ζ signaling domains downstream, along with a 2A peptide-linked MHC-II α-chain (Fig. 1a,b). To test whether SABR-IIs could present epitopes to TCRs and induce a signal, we expressed them using lentiviral vectors in NFAT–GFP Jurkat cells, which express green fluorescent protein (GFP) upon NFAT activation and translocation downstream of CD3ζ activation (a kind gift from Y. Chen and A. Weiss). We constructed murine SABR-IIs presenting epitopes in I-Ab, I-Ad and I-Ag7 (Ova, […][41]; ATEG, […][42]; and 2.5mimo, […][43], respectively). We co-incubated the SABR-II-expressing NFAT–GFP Jurkat cells with a separate population of Jurkat cells expressing either the BDC2.5 TCR (recognizes I-Ag7-2.5mimo), OT-II TCR (recognizes I-Ab-Ova), 5-4-E8 TCR (recognizes I-Ad-ATEG) or no TCR. […] The signal from the NFAT–GFP reporter offered minimal background in absence of a cognate TCR and correlated with surface SABR expression in the presence of a cognate TCR (Extended Data Fig. 1c–e). […] We confirmed the ability of the DQ8-InsB9:23 SABR-II to present the epitope to two previously described, T1D patient-derived TCRs GSE.6H9 and GSE.20D11 (ref. [46]).
as §1

For a further test, the system named is GSE.6H9 TCR. The test is described as above. The test is classed as cell-based, human. The settings on record: HLA-DQ8 SABR-II.
Text: as §2, §1

Another test has as its system TCR37. In words: mIL-2 ELISA, TCR-expressing 5KC cells with SABR NFAT-GFP Jurkat cells. Format: cell-based, mouse. The settings on record: murine IL-2 ELISA, 24 hr co-incubation.

Consider LQTLALNAARDP, for which the “%GFP+CD69+ cells of SABR-NFAT-GFP-Jurkat cells” value came to 0.94% in the test with TCR3 (technical replicate 1) and 0.89% in the test on TCR3 (technical replicate 2).

With SHLVEALYLVCGERG, the “frequency of GFP+CD69+ cells (in words)” value in the test with GSE.20D11 TCR and in the test with GSE.6H9 TCR was “high frequency of GFP^+CD69^+ cells” throughout. The results for the IL-2 secretion in the test with TCR37 (technical replicate 1) and in the test on TCR37 (technical replicate 2) were 37.8351 and 38.2928, respectively.

The record behind these values is publication PMC11093748, “De novo identification of CD4^+ T cell epitopes” (Nature Methods, 2024).
